Measurements: patent US8383615B2, “Azetidine 2-carboxamide derivatives which modulate the CB2 receptor” (Boehringer Ingelheim International GmbH, priority 2009, dated 2013)

target: T1, human CB2R (Homo sapiens, UniProt P34972); test: CB2R mediated modulation of cAMP synthesis; format: cell-based; settings: CB2 EC50 (nM), CHO cells expressing human CB2R; inhibition of forskolin-stimulated cAMP synthesis; agonist
T1 construct: host or cells: CHO cells
Procedure: B. CB2R Mediated Modulation of cAMP Synthesis:
Compounds of the invention were evaluated for their CB2 agonist or inverse agonistic activity in accordance with the following experimental method.
CHO cells expressing human CB2R (Euroscreen) were plated at a density of 5000 cells per well in 384 well plates and incubated overnight at 37° C. After removing the media, the cells were treated with test compounds diluted in stimulation buffer containing 1 mM IBMX, 0.25% BSA and 10 uM Forskolin. The assay was incubated for 30 minutes at 37° C. Cells were lysed and the cAMP concentration was measured using DiscoverX-XS cAMP kit, following the manufacturer's protocol. In this setting, agonists will decrease forskolin induced production of cAMP while inverse agonists will further increase forskolin induced production of cAMP. EC50 of agonists were calculated as follows. The maximal amount of cAMP produced by forskolin compared to the level of cAMP inhibited by 1 uM CP55940 is defined as 100%. The EC50 value of each test compound was determined as the concentration at which 50% of the forskolin-stimulated cAMP synthesis was inhibited. Data was analyzed using a four-parameter logistic model. (Model 205 of XLfit 4.0).

T1 sequence (P34972 whole entry): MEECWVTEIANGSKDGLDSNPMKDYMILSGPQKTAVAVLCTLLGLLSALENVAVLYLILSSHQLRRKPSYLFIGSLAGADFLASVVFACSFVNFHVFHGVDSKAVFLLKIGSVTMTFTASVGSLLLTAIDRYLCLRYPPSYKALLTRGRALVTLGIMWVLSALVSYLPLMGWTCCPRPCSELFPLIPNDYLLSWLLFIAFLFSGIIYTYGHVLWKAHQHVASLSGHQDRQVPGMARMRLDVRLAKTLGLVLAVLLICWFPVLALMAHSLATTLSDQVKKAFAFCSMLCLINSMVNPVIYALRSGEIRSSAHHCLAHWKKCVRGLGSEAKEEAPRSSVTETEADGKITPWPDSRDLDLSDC

Point of comparison: CC(C)(CO)c1cc(NC(=O)[C@@H]2CCN2c2ncc(C(F)(F)F)cc2Cl)on1, EC50 0.12 nM. Against it:
- CC(C)(C)c1coc(NC(=O)[C@@H]2CCN2C2CCOCC2)n1 — 1700-fold higher, 206 nM
- O=C(Nc1nc2cc(Cl)ccc2s1)[C@@H]1CCN1C1CCOCC1 — 720-fold higher, 86 nM
- O=C(Nc1nc(C2CCCCC2)cs1)[C@@H]1CCN1C1CCOCC1 — 470-fold higher, 56 nM
- CC(C)(C)c1cc(NC(=O)[C@@H]2CCN2C2CCOCC2)sn1 — 2600-fold higher, 313 nM
- CC(C)(C)c1nsc(NC(=O)[C@@H]2CCN2C2CCOCC2)n1 — 3900-fold higher, 471 nM
- O=C(Nc1nc(-c2ccc(F)c(F)c2)cs1)[C@@H]1CCN1C1CCOCC1 — 1700-fold higher, 203 nM
- O=C(Nc1nc2c(F)cccc2s1)[C@@H]1CCN1C1CCOCC1 — 1300-fold higher, 153 nM
- CC(C)(C)Cc1cc(NC(=O)[C@@H]2CCN2C2CCOCC2)on1 — 2000-fold higher, 243 nM
- CCc1sc(NC(=O)[C@@H]2CCN2c2ncc(C(F)(F)F)cc2Cl)nc1-c1ccccc1 — 23-fold higher, 2.7 nM
- CCc1sc(NC(=O)[C@@H]2CCN2CC2CCOCC2)nc1-c1ccccc1 — 34-fold higher, 4.1 nM
- CCc1sc(NC(=O)[C@@H]2CCN2C2CCOCC2)nc1-c1ccccc1 — 970-fold higher, 116 nM
- CCc1sc(NC(=O)[C@@H]2CCN2c2ccc(C(F)(F)F)cn2)nc1-c1ccccc1 — 1100-fold higher, 128 nM
- CC(C)(C)c1cc(NC(=O)[C@@H]2CCN2c2ccc(C(F)(F)F)cn2)on1 — 5.6-fold higher, 0.67 nM
- CC(C)(C)c1cc(NC(=O)[C@@H]2CCN2c2ccc(Cl)cc2)no1 — 14-fold higher, 1.7 nM
- CC(C)(C)c1cc(NC(=O)[C@@H]2CCN2c2ccc(Cl)cc2)on1 — 6.2-fold higher, 0.75 nM
- O=C(Nc1cc(C(F)(F)F)no1)[C@@H]1CCN1c1ccc(Cl)cc1 — 360-fold higher, 43 nM
- CC(C)N1CC[C@H]1C(=O)Nc1cc(C(C)(C)C)no1 — 220-fold higher, 26 nM
- CC(C)(C)c1cc(NC(=O)[C@@H]2CCN2C2CCCC2)on1 — 55-fold higher, 6.6 nM
- CC(C)(C)c1cc(NC(=O)[C@@H]2CCN2C2CCCCC2)on1 — 1.5-fold lower, 0.08 nM
- CC(C)(C)c1cc(NC(=O)[C@@H]2CCN2Cc2ccc(F)c(F)c2)on1 — 120-fold higher, 14 nM
- CC(C)(C)c1cc(NC(=O)[C@@H]2CCN2S(=O)(=O)c2ccc(S(C)(=O)=O)cc2)no1 — 1600-fold higher, 197 nM
- CCCS(=O)(=O)N1CC[C@H]1C(=O)Nc1cc(C(C)(C)C)on1 — 1300-fold higher, 157 nM
- CC(C)(C)c1cc(NC(=O)[C@@H]2CCN2S(=O)(=O)c2ccc(S(C)(=O)=O)cc2)on1 — 3000-fold higher, 357 nM
- COCC(C)(C)c1cc(NC(=O)[C@@H]2CCN2c2ccc(Cl)cc2)no1 — 100-fold higher, 12 nM
- CC(C)(C)c1cc(NC(=O)[C@@H]2CC(=O)N2c2ccc(Cl)cc2)on1 — 140-fold higher, 17 nM
- CC(C)(C)c1cc(NC(=O)[C@@H]2CC(=O)N2c2ccc(Cl)cc2)no1 — 420-fold higher, 50 nM
- CC(C)(CO)c1cc(NC(=O)[C@@H]2CCN2c2ccc(C(F)(F)F)cn2)on1 — 150-fold higher, 18 nM
- CC(C)(CO)c1cc(NC(=O)[C@@H]2CCN2c2ccc(Cl)cc2)on1 — 150-fold higher, 18 nM
- CC(C)(CO)c1cc(NC(=O)[C@@H]2CCN2c2ccc(F)cc2)on1 — 180-fold higher, 22 nM
- COCC(C)(C)c1cc(NC(=O)[C@@H]2CCN2c2ccc(F)cc2)no1 — 64-fold higher, 7.7 nM
- COCC(C)(C)c1cc(NC(=O)[C@@H]2CCN2c2ccc(F)cc2)on1 — 47-fold higher, 5.6 nM
- COCC(C)(C)c1cc(NC(=O)[C@@H]2CCN2C2CCOCC2)on1 — 620-fold higher, 75 nM
- CC(C)(C)c1cc(NC(=O)[C@@H]2CCN2c2ncc(C(F)(F)F)cc2Cl)no1 [drawing 125] — 6-fold lower, 0.02 nM
- CC(C)(C)c1cc(NC(=O)[C@@H]2CCN2c2ncc(C(F)(F)F)cc2Cl)no1 [drawing 126] — 2.4-fold lower, 0.05 nM
- CC(C)(C)c1cc(NC(=O)[C@@H]2CCN2C2CCOCC2)no1 [drawing 128] — 73-fold higher, 8.8 nM
- CC(C)(C)c1cc(NC(=O)[C@@H]2CCN2C2CCOCC2)no1 [drawing 132] — 150-fold higher, 18 nM

same assay, conditions: CHO cells expressing human CB2R; inhibition of forskolin-stimulated cAMP synthesis; agonist; read-out: CB2 EC50

Point of comparison: O=C(Nc1nc(-c2ccccc2)cs1)[C@@H]1CCN1C1CCOCC1, EC50 465 nM. Against it:
- O=C(Nc1ccc(C(F)(F)F)c(F)c1)[C@@H]1CCN1C1CCOCC1 — within 1.5-fold, 371 nM
- CC(C)(C)c1cc(NC(=O)[C@@H]2CCN2C(=O)C2CCC(F)(F)CC2)no1 — 3.7-fold lower, 127 nM
